Measured values: patent publication US20080033026A1, “Antimicrobial compositions, methods and systems” (priority 2006, published 2008)

Tests used:
[1] = system: Campylobacter jejuni (ATCC 29428); test: Preservative effectiveness on food pathogens (US Pharmacopoeia 23); format: cell-based
Protocol: The effectiveness of 9-decenoic acid on food pathogens was determined using the protocol on preservative effectiveness found in the US Pharmacopoeia 23, 1995.
Stock cultures of the Listeria monocytogenes (ATCC 1911-1), Salmonella enteritidis (ATCC 13076) and Campylobacter jejuni (ATCC 29428) were transferred for at least three consecutives days on Trypticase Soy Agar (TSA) and incubated at 30-35° C. for 18-24 hours. On the day of the test, the cells were washed from the agar surface with sterile saline containing 0.05% w/v Polysorbate 80 (SS+) and the suspension was centrifuged at 2000 rpm for 15 minutes and resuspended in SS+. The suspension was diluted to approximately 10^8 CFU/ml.
[…] The samples were dispensed in 20 ml aliquots in sterile test tubes. For each concentration tested, a 0.1 ml aliquot of each inoculum was added to a final concentration of 10^5 to 10^6 CFU/ml. The tubes were incubated at room temperature and sampled on days 0, 1, 2, 4, 7, 14, 21 and 28.
At each sample point, 1.0 ml aliquots were withdrawn, serially diluted and plated in triplicate on TSA. The plates were incubated at 30-35° C. for 2-4 days. The colonies were counted and the average CFU/ml was calculated. Controls for purity, viability and sterility were performed as described previously.
According to the US Pharmacopoeia, a test compound is an effective preservative if the concentrations of viable bacteria remain at or below the initial concentrations during the first fourteen days and after 28 days.
Additionally, test organisms in Tables 9-11 were exposed to the 9-decenoic acid for several minutes before analysis at Day 0. As shown in the Tables 9-11, significant biocidal activity was observed even within this short time period for the test organisms, illustrating the effectiveness of 9-decenoic acid as a biocidal agent.

[2] = system: Candida albicans (ATCC 10231); test: Time-kill determination; format: cell-based
Protocol: The assessment of efficacy of 9-decenoic acid against a spectrum of microorganisms was determined using the American Society for Testing and Materials (ASTM) procedure entitled “Standard Test Method for the Assessment of Microbiocidal Activity of Test Materials Using a Time-Kill Procedure,” October 1998. This procedure incorporates the recommendations described in the “Manual of Clinical Microbiology,” 5th ed., edited by A. B. Balows et al., ASM, Washington, and is directed by the Federal Register, June 1994.
Challenge organisms were prepared as follows. Cultures of the following organisms were obtained: Staphylococcus aureus (ATCC 6538), Pseudomonas aeruginosa (ATCC 15442), Staphylococcus epidermidis (ATCC 12228), Klebsiella pneumoniae (ATCC 4352), Escherichia coli 0157:H7 (ATCC 43895) and Candida albicans (ATCC 10231). The stock cultures were transferred to sterile tubes and sterile tryptic soy broth (TSB) was added to the cultures. The mixture was incubated for 18-24 hours at 37° C. (±2° C.). A portion of this culture was then transferred onto TSA plates and incubated for 18-24 hours at 37° C. (±2° C.). The plates were removed from incubation and the bacterial growth was washed from the agar surface using Butterfield's Phosphate Buffered Dilution Water (PBDW).
The bacterial suspension was adjusted to contain approximately 10^8 Colony Forming Units (CFU) per ml with PBDW. The concentration was adjusted to an optical density (OD) of 0.4-0.5 (versus a PBDW blank) at 620 nm in a UV-Vis spectrophotometer, and this optical density gave approximately 10^8 colony forming units per milliliter (cfu/ml). The standardized suspension was stored under appropriate conditions until it was used as the challenge inoculum.
Concentrated 9-decenoic acid (97%) was diluted in filter sterilized isopropanol to yield a 25,000 ppm stock solution. Subsequent dilutions to the 9-decenoic acid stock solutions were made with sterile Deionized Water (DI) to achieve concentrations of 0.1%, 0.05%, 0.01% and 0.001%. The pH was determined for each dilution; pH values ranged from 4.4-4.1. Additionally, 9-decenoic acid stock solution was adjusted to pH 7 with 1 N NaOH and serially diluted with sterile DI to achieve concentrations of 1%, 0.5%, 0.2%, 0.1%, 0.05% and 0.0025%. In addition, 9-decenoic acid stock solution was combined with Triclosan™ (obtained from Ciba Specialty Chemical Corporation, under the tradename Irgasan DP 300™) in various ratios, as indicated in Table 8. The pH of the combined solution was 7.
Compliant with the ASTM procedure cited, for each challenge microorganism a 9.9 ml aliquot of the prepared 9-decenoic acid suspension was added to a sterile tube. A 0.1 ml aliquot of the standardized inoculum was added to the 9-decenoic acid solution representing the start of the test exposure. The inoculated 9-decenoic acid solution was immediately mixed thoroughly. The inoculated suspension was held at room temperature for 0.5, 2, 5, 7 and 10-minute exposure times for tests run at pH level of approximately 4. The pH 7 tests were held at room temperature for 0.5 and 2 minutes.
At each exposure sample time, a 1.0 ml aliquot of the inoculated 9-decenoic acid suspension was transferred to 9.0 ml of D/E Neutralizing Broth. Additional ten-fold serial dilutions were made in PBDW and plated in duplicate on TSA. All plates were incubated for 48 hours at 37° C. (±2° C.) and visually examined for growth. The plates were enumerated, recorded and log kill determined for each time point.
The following study controls were conducted: culture purity, neutralizer sterility, initial suspension population, test population, neutralization verification and a negative control using isopropanol. Culture purity was verified by performing a streak plate for isolated colonies of each culture used. All cultures were determined to be pure based on consistent colony morphology typical for the test organism. The neutralizer sterility was confirmed by no growth in an incubated sample. […]

SMILES: C=CCCCCCCCC(=O)O [9-decenoic acid]
- Log reduction ([1]; 0.0078% 9-decenoic acid, exposure day 0): 0 log
- Log reduction ([1]; 0.0078% 9-decenoic acid, exposure day 1): 0.67 log
- Log reduction ([1]; 0.0078% 9-decenoic acid, exposure day 2): 5.1 log
- Log reduction ([1]; 0.0078% 9-decenoic acid, exposure day 4): 5.1 log
- Log reduction ([1]; 0.0078% 9-decenoic acid, exposure day 7): 5.1 log
- Log reduction ([1]; 0.0078% 9-decenoic acid, exposure day 14): 5.1 log
- Log reduction ([1]; 0.0078% 9-decenoic acid, exposure day 21): 5.1 log
- Log reduction ([1]; 0.0078% 9-decenoic acid, exposure day 28): 5.1 log
- Log reduction ([1]; 0.015% 9-decenoic acid, exposure day 0): 2.8 log
- Log reduction ([1]; 0.015% 9-decenoic acid, exposure day 1): 5.1 log
- Log reduction ([1]; 0.015% 9-decenoic acid, exposure day 2): 5.1 log
- Log reduction ([1]; 0.015% 9-decenoic acid, exposure day 4): 5.1 log
- Log reduction ([1]; 0.015% 9-decenoic acid, exposure day 7): 5.1 log
- Log reduction ([1]; 0.015% 9-decenoic acid, exposure day 14): 5.1 log
- Log reduction ([1]; 0.015% 9-decenoic acid, exposure day 21): 5.1 log
- Log reduction ([1]; 0.015% 9-decenoic acid, exposure day 28): 5.1 log
- Log reduction ([1]; 0.03% 9-decenoic acid, exposure day 0): 5.1 log
- Log reduction ([1]; 0.03% 9-decenoic acid, exposure day 1): 5.1 log
- Log reduction ([1]; 0.03% 9-decenoic acid, exposure day 2): 5.1 log
- Log reduction ([1]; 0.03% 9-decenoic acid, exposure day 4): 5.1 log
- Log reduction ([1]; 0.03% 9-decenoic acid, exposure day 7): 5.1 log
- Log reduction ([1]; 0.03% 9-decenoic acid, exposure day 14): 5.1 log
- Log reduction ([1]; 0.03% 9-decenoic acid, exposure day 21): 5.1 log
- Log reduction ([1]; 0.03% 9-decenoic acid, exposure day 28): 5.1 log
- Concentration at which effective preservative ([1]; US Pharmacopoeia definition, 28 days): ≤ 0.0078%
- Exposure time at which bactericidal ([1]; at 0.0015%): 1 days
- Exposure time at which bactericidal ([1]; at 0.0078%): 2 days
- Exposure time at which bactericidal ([1]; for 0.003%): 0 days
- Log reduction ([2]; 0.01% 9-decenoic acid, pH 4.4, exposure 0.5 min): 1.0 log
- Log reduction ([2]; 0.01% 9-decenoic acid, pH 4.4, exposure 2 min): 2.9 log
- Log reduction ([2]; 0.01% 9-decenoic acid, pH 4.4, exposure 5 min): >6.7 log
- Log reduction ([2]; 0.01% 9-decenoic acid, pH 4.4, exposure 7 min): >6.7 log
- Log reduction ([2]; 0.01% 9-decenoic acid, pH 4.4, exposure 10 min): >6.7 log
- Log reduction ([2]; 0.05% 9-decenoic acid, pH 4.1, exposure 0.5 min): >6.7 log
- Log reduction ([2]; 0.05% 9-decenoic acid, pH 4.1, exposure 2 min): >6.7 log
- Log reduction ([2]; 0.05% 9-decenoic acid, pH 4.1, exposure 5 min): >6.7 log
- Log reduction ([2]; 0.05% 9-decenoic acid, pH 4.1, exposure 7 min): >6.7 log
- Log reduction ([2]; 0.05% 9-decenoic acid, pH 4.1, exposure 10 min): >6.7 log
- Log reduction ([2]; 0.1% 9-decenoic acid, pH 4.1, exposure 0.5 min): >6.7 log
- Log reduction ([2]; 0.1% 9-decenoic acid, pH 4.1, exposure 2 min): >6.7 log
- Log reduction ([2]; 0.1% 9-decenoic acid, pH 4.1, exposure 5 min): >6.7 log
- Log reduction ([2]; 0.1% 9-decenoic acid, pH 4.1, exposure 7 min): >6.7 log
- Log reduction ([2]; 0.1% 9-decenoic acid, pH 4.1, exposure 10 min): >6.7 log
